These results are taken from US20240133884A1, “COMPOSITIONS AND METHODS FOR DETECTING TRYPANOSOMA CRUZI INFECTION” (University of Georgia Research Foundation, Inc., priority 2022, published 2024).

Where only a bound is given, the exact number is not on record here.

The conditions of data set [1]: in vivo.
Data set [2] concerns T. cruzi (Brazil strain). To be noted: cited from earlier work.
Data set [3] relates to T. cruzi intracellular amastigotes. The experiment in a line: In vitro anti-T. cruzi amastigote growth inhibition assay (tdTomato fluorescence, 72 hours, Vero cells). The data set is classed as cell-based, Trypanosoma cruzi. The settings on record: for in vitro activity against T. cruzi: in words. Here is the method:
(§1) The in vitro anti-T. cruzi amastiogote activity assay was performed and optimized based on the protocol described previously (Canavaci, et al., PLoS neglected tropical diseases 4, e740 (2010)). The change in tdTomato fluorescence intensity was determined as a measurement of growth over 72 hours of culture. For assaying drug effects on extracellular amastigotes, trypomastigotes were collected from infected Vero cell cultures and converted in acidic media as previously described (Tomlinson, et al., Parasitology 110 (Pt 5), 547-554 (1995)). Amastigotes (50,000/well) were incubated with 2-fold serial dilutions of compounds for 48 hours. The ATP production was used as an indication of growth in this case, and was measured by ATPlite Luminescence ATP Detection Assay System (PerkinElmer). Both fluorescence and luminescence were read using a BioTek Synergy Hybrid Multi-Mode reader equipped with the software Gene5 v 2.0 (BioTek). The dose-response curve was generated by […] analysis with GraphPad Prism v9.4.0 (GraphPad Software). IC50 was determined as the drug concentration that was required to inhibit 50% of growth compared to that of parasites with no drug exposure.

Data set [4] deals with CPSF3. The settings on record: T. b. brucei; cited from earlier work.
Data set [5] relates to T. cruzi extracellular amastigotes. Briefly: Extracellular amastigote assay (ATPlite ATP production, 48 hours). Type of data set: cell-based, Trypanosoma cruzi. To be noted: relative to parent ester (FIG. 2A). Here is the method:
as §1

Data set [6] deals with mammalian enzymes, receptors and ion channels. Briefly: Safety pharmacology: affinity for a broad array of mammalian enzymes, receptors and ion channels. Type of data set: binding.
The nature of data set [7]: High dose 7-day toxicology studies in rats. The settings on record: high dose 7-day toxicology studies, oral. Type of data set: in vivo.
The nature of data set [8]: Standard Ames study. The data set is classed as cell-based.
Data set [9] concerns cytochrome P450 enzymes. Briefly: Inhibition of representative cytochrome P450 enzymes. Type of data set: in vitro ADME. The settings on record: 10 uM.
The test system of data set [10] is T. cruzi. The settings on record: T. cruzi-infected NHPs; cited from earlier work.
The test system of data set [11] is T. cruzi. Briefly: BNZ prophylaxis / treatment in kennel dogs (multiplex serology, blood PCR). The data set is classed as in vivo, Trypanosoma cruzi. The settings on record: for impact of prophylaxis on new infections: high intensity transmission setting. The source says:
For studies in dogs, a small network of kennels was formed in central and south Texas with a history of triatomine vector occurrence and canine Chagas disease with owners who were willing to participate in the study. Kennels are identified through (i) canine patients with Chagas disease presenting to the cardiology unit at the TAMU VMTH and (ii) the TAMU Kissing Bug Community Science program, in which many dog owners submit triatomines collected from large kennel environments. At these large kennels, dogs are primarily bred and trained to aid hunting parties. Approximately 40-80 dogs reside within each kennel, and the predominant breeds include Belgian Malinois, Brittany spaniels, English pointers, German shorthaired pointers, Labrador retrievers, and hound dogs. Dogs >3 months of age, including males and females, were eligible for enrollment. Dogs identified after blood screening as seronegative based on multiplex serology and PCR-negative were randomly assigned to treatment groups. Neither the investigators, private veterinarian providing care to the dogs in the field, nor the dog owners were blinded to the treatment groups and no placebo was given to control dogs. Informed consent was obtained from dog owners prior to their participation, and this study was approved by the Texas A&M University Institutional Committee on Animal Use and Care and the Clinical Research Review Committee.
The limit of detection was set at the lowest standard of 0.0017 parasite equivalents per 50 ng of DNA. For detection of T. cruzi infection in dogs, DNA was extracted from 250 uL of the buffy coat fraction of EDTA-treated blood using the E.Z.N.A Tissue DNA kit (Omega Bio-Tek, Norcross, GA, USA) according to the manufacturer's protocol except 50 μL of elution buffer was used. T. cruzi-negative controls (phosphate buffered saline) were included in the DNA extractions. Samples were tested using qPCR for the presence of T. cruzi satellite DNA using the Cruzi 1/2 primer set and Cruzi 3 probe in a real-time assay, which amplifies a 166-bp segment of a repetitive nuclear DNA (Piron, et al., Acta tropica. 103(3):195-200 (2007), Cummings & Tarleton, Molecular and biochemical parasitology 129(1):53-9 (2003)) as previously described (Meyers, et al., PLoS neglected tropical diseases 11(8) 2017)). A sample was considered T. cruzi-positive if the Ct value was <35 (Curtis-Robles, et al., Vet Parasitol Reg Stud Reports 12:85-8 (2018)).
The 67 animals considered infection-negative were randomly assigned to either a control (no therapy) or a prophylactic group, which received twice weekly doses of BNZ at a level of not less than 10 mg/kg. This dosage is approximately the normal daily dose previously used (mostly ineffectively) to attempt drug-cure in dogs (Guedes, et al., Acta tropica. 84(1):9-17 (2002), Santos, et al., The Journal of antimicrobial chemotherapy. 67(8):1987-95 (2012), Cunha, et al., Experimental parasitology. 204:107711 (2019)). Dogs in these groups were then re-sampled 10-12 weeks (considered the midpoint of the transmission season) and ˜24 weeks (end of season).

For data set [12], the system named is T. cruzi (Colombiana strain). Briefly: BNZ prophylaxis in mice (bioluminescence imaging, T-cell phenotyping, tissue qPCR). To be noted: for luciferase signal: 100 mg/kg twice weekly. Type of data set: in vivo, Trypanosoma cruzi. Here is the method: For the studies in mice, female mice, 8-12 weeks old were used for infections throughout the study. Sample sizes were determined based upon knowledge of heterogeneity in parasite burden during T. cruzi infection and published reports using similar experimental strategies. Data collected were included if productive T. cruzi infection was established (visualized by luciferase imaging or flow cytometry by detection of T. cruzi-tetramer specific CD8^+ T cells). The investigators were not blinded during the collection or analysis of data and mice were randomly assigned to treatment groups prior to the start of each experiment.
C57BL/6J (Stock No:000664) mice (C57BL/6 wild-type) were purchased from The Jackson Laboratory (Bar Harbor, ME) and C57BL/6J-IFN-gamma knockout mice (also known as B6.129S7-Ifngtm1 Ts/J; The Jackson Laboratory stock No 002287) were bred in-house at the University of Georgia Animal Facility. All the animals were maintained in the University of Georgia Animal Facility under specific pathogen-free conditions. T. cruzi tissue culture trypomastigotes of the Colombiana strain co-expressing firefly luciferase and tdTomato reporter proteins, generated as described previously (Sanchez-Valdez, et al., eLife 7 (2018), Bustamante, et al., Sci Transl Med. 12(567) 2020)), were maintained through passage in Vero cells (American Type Culture Collection (Manassas, VA)) cultured in RPMI 1640 medium with 10% fetal bovine serum at 37° C. in an atmosphere of 5% CO2. Mice were infected intraperitoneally with 10^3 tissue culture trypomastigotes of T. cruzi. This study was carried out in strict accordance with the Public Health Service Policy on Humane Care and Use of Laboratory Animals and Association for Assessment and Accreditation of Laboratory Animal Care accreditation guidelines. The protocol was approved by the University of Georgia Institutional Animal Care and Use Committee.
Mice were treated with benznidazole twice weekly at a 100 mg/kg/day and infected midway during the 3rd week of treatment (FIG. 8A). Benznidazole (BNZ—Elea Phoenix, Buenos Aires, Argentina) was prepared by pulverization of tablets followed by suspension in an aqueous solution of 1% sodium carboxymethylcellulose with 0.1% Tween 80 and delivered orally by gavage at a concentration dosage of 100 mg/kg of body weight. Each mouse received 0.2 ml of this suspension. Luciferase-expressing parasites were quantified in mice by bioluminescent detection. Mice were injected intraperitoneally with D-luciferin (150 mg/kg; PerkinElmer, Waltham, MA) and anesthetized using 2.5% (vol/vol) gaseous isofluorane in oxygen prior to imaging on an IVIS Lumina II imager (Xenogen, Alameda, CA) for an exposure time of 5 minutes, as previously described (Canavaci, et al., PLoS neglected tropical diseases 4(7):e740 (2010)). Quantification of bioluminescence and data analysis was performed using Aura Imaging Software version 4.0.7 (Spectral Instruments Imaging, Tucson, AZ).
Whole blood was incubated with a major histocompatibility complex I (MHC I) tetramer containing the T. cruzi transialidase TSKB20 peptide (ANYKFTLV (SEQ ID NO:124)/Kb) labeled with BV421 (Tetramer Core Facility at Emory University, Atlanta, GA) and the following labeled antibodies: anti-CD8 FITC, anti-CD4 APC EF780, anti-CD127 PE (BD Bioscience, San Jose, CA). At least 500,000 cells were acquired using a CyAn ADP flow cytometer (Beckman Coulter, Hialeah, Florida) and analyzed with FlowJo software v10.6.1 (Treestar, Inc., Ashland, OR).
[…]
(In general: In qPCR the cycle at which signal appears reflects the starting amount.)

Setting [13] is: dog BEHE4, 30 mg/kg twice a week, 24 week sample point.

In the case of `O=C(Nc1ccc2c(c1)B(O)OC2)c1ccc(F)cc1C(F)(F)F` [AN4169], the “therapeutic margin in rodent tolerability studies” value in [1] is listed as “insufficient therapeutic margin”. In addition, the cure of mice in data set [2] (mice infected with T. cruzi Brazil strain) was 100%.

Turning to `CC(C)[C@H](NC(=O)c1ccc2c(c1)B(O)OC2)C(=O)OCc1ccccc1` [AN10443], the “metabolic stability in mouse S9 liver fraction assay” value was “good metabolic stability”. Besides, the “in vitro activity against T. cruzi” value in [3] is reported as “submicromolar activity”.

On to `Cc1c(C(=O)N[C@H](C(=O)OCc2ccccc2)C(C)C)ccc2c1B(O)OC2` [AN11735], for which, in [3] (read-out: in vitro activity against T. cruzi (IC50)), the IC50 is below 10 nM.

Turning to `Cc1c(C(=O)N[C@H](C(=O)OCc2ccc(F)cc2)C(C)C)ccc2c1B(O)OC2` [AN11736], the “effect of CPSF3 overexpression on killing” value in [4] is “induced resistance to killing”.

Turning to `Cc1c(C(=O)N[C@H](C(=O)OCc2ccc(S(C)(=O)=O)cc2)C(C)C)ccc2c1B(O)OC2` [AN14561], the “in vitro activity against T. cruzi” value in data set [3] is on record as “significantly less potent”.

On to `Cc1c(C(=O)N[C@H](C(=O)O)C(C)C)ccc2c1B(O)OC2` [AN14667], for which the “reduced activity on extracellular amastigotes” value in data set [5] is given as around 1000 fold. Moreover, the “reduced activity on intracellular amastigotes” value in [3] (relative to parent ester (FIG. 2A)) was around 1000 fold.

`Cc1c(C(=O)N[C@H](C(=O)OCc2ccc(F)cc2)C(C)(C)O)ccc2c1B(O)OC2` [AN14817]: the “affinity for a broad array of mammalian enzymes, receptors and ion channels” value in [6] is “little to no affinity”. Moreover, in [7], the “dose proportionality of exposure” value is on record as “non-dose proportional exposure”. Further, in data set [8], the “genotoxicity, Ames” value was “non-genotoxic”. Further, the “inhibition of representative cytochrome P450 enzymes” value in [9] is “did not demonstrate significant inhibition”.

`Cc1c(C(=O)NC(C(=O)OCCN2CCOCC2)C(C)C)ccc2c1B(O)OC2` (centres unmarked) [AN15129]: the “in vitro activity against T. cruzi” value in data set [3] is reported as “less active than neutral compounds”.

On to `O=C(Cn1ccnc1[N+](=O)[O-])NCc1ccccc1` [benznidazole], for which the “cure of established infections” value in data set [2] (mice, weekly or twice weekly high dose (2.5-5× normal daily dose)) was “could cure established infections”. Also, in [2] (mice), the “generation of cure with 20 days of treatment” value was “only partially effective”. Moreover, in data set [10], the “failures in treatment trials” value is recorded as above 60%. Moreover, the “blood PCR” value in data set [11] (setting [13]) is reported as “PCR negative”. In data set [11] (setting [13]), the serology entry is reported as “seronegative”. The “impact of prophylaxis on new infections” value in data set [11] (dogs) is recorded as “no impact on the incidence of new infections”; in data set [11] (dogs, listed as BNZ), “no impact on the number of new infections”. Further, the new infections in data set [11] (dogs, prophylaxis group, twice weekly not less than 10 mg/kg) came out at 26.5%. Further, the mice systemically parasite-positive in data set [12] (IFNγ KO mice, within 4 weeks of termination of prophylaxis) is recorded as 4 of 5. The “overall effect of prophylaxis regimen” value in [12] (WT mice) is recorded as “prevented or truncated an infection in most cases”. Besides, the luciferase signal entry in [12] (WT mice, day 14 post-exposure or beyond) is “none of the mice in the BNZ-treated WT group had a detectable luciferase signal above background”; in data set [12] (some IFNγ KO mice, day 14 post-exposure (not at 12 weeks)), “low level signal”. Further, the “mice negative for T. cruzi DNA (qPCR of skeletal muscle, heart, gut)” value in data set [12] (WT mice, week 33) is listed as “at least 3 of the 5”. In addition, the “fraction of CD127+ cells in the TSKb20-specific CD8+ T cell population” value in [12] (mice under prophylaxis vs no prophylaxis, through 21st week) is on record as “substantially higher fraction of CD127+ cells”.

For the compound `CC[C@@H]([C@H](C)O)n1ncn(-c2ccc(N3CCN(c4ccc(OC[C@@H]5CO[C@@](Cn6cncn6)(c6ccc(F)cc6F)C5)cc4)CC3)cc2)c1=O` [posaconazole], in [10], the “failures in treatment trials” value was 100%.

By IC50 is commonly meant the concentration that inhibits the measured activity by half.
